Assay results taken from patent US7214519B2, “Screening method for identifying heme independent modulators of soluble guanylyl cyclase (sGC) activity using αβCys105 mutant sGC” (Board of Regents of the University of Texas System, priority 2003, dated 2007).
Residue numbers refer to the chain shown, from its start. One block for each compound: values may come before it.

Assays:
wild type sGC = target: T1, wild type sGC (Homo sapiens, UniProt Q02108+Q02153); experiment: Assay of sGC activity ([32P]cGMP formation from GTP), purified wild type enzyme; format: biochemical
T1 construct: made in house; host or cells: Sf9 cells (baculovirus)
T1 sequence (Q02153 1-619): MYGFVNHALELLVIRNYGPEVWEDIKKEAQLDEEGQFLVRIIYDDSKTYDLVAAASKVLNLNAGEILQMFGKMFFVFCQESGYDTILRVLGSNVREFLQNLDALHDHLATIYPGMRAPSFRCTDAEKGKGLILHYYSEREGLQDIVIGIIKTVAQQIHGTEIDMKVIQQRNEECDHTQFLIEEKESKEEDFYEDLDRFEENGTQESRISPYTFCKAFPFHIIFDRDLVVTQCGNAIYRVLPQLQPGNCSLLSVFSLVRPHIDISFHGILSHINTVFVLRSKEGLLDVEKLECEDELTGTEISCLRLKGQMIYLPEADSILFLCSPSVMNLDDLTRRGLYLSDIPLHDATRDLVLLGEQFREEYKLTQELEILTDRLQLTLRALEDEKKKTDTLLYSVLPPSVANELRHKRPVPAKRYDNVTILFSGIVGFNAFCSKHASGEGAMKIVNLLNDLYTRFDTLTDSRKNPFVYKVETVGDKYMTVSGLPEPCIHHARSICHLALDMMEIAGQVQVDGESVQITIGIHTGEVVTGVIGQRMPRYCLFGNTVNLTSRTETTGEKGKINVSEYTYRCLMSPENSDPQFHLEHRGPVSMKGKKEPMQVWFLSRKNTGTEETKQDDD
T1 sequence (Q02108 1-690): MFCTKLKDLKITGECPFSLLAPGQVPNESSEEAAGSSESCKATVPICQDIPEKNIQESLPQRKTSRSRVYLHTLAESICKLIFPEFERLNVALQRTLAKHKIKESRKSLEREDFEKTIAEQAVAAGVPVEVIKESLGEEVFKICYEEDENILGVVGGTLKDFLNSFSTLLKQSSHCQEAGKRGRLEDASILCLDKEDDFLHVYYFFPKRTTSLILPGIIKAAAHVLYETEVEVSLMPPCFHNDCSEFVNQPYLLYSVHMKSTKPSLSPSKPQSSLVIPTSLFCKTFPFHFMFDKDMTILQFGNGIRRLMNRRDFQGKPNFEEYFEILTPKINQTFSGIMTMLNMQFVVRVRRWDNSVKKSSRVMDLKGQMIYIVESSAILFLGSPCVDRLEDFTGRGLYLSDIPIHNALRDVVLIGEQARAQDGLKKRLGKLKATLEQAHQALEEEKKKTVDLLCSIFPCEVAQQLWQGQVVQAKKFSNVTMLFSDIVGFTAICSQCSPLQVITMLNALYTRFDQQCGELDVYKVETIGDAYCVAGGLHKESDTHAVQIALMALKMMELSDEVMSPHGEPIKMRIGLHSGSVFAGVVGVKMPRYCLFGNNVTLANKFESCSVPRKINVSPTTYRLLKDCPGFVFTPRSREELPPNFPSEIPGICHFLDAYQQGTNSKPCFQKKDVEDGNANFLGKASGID
Experimental: (§1) sGC Expression and Purification. […] Purification of sGC was performed as described earlier (26), the disclosure of which is hereby incorporated herein by reference, with the following modifications. Cells were harvested 72 h post infection, resuspended in loading buffer (25 mM triethanolamine, pH 7.5. 10 glycerol, 4 mM MgCl2 and 1 mM phenylmethylsulfonyl fluoride, and 5 μg/ml each of pepstatin A, leupeptin, aprotinin, and chymostatin,) and lysed by sonication. The lysate was subjected to 100,000×g centrifugation for 1 h. The high-speed supernate was loaded on a 60 ml DEAE-Sepharose (Amersham Pharmacia Biotech) column and washed with 60 ml of loading buffer without protease inhibitors. The proteins were eluted with loading buffer containing 250 mM NaCl and the eluate was directly loaded on a 30 ml His-Bind resin (Novagen) column. The column was washed with 60 ml of loading buffer followed by 60 ml of loading buffer with 45 mM imidazole. The enzyme was eluted with 175 mM imidazole and 2 ml fractions were collected. […] The enzyme at this stage was approximately 90–95% pure. To remove imidazole, sGC-containing fractions were diluted 3 fold with 25 mM triethanolamine pH 7.5, loaded on a 2 ml Hi-Trap DEAE-Sepharose column (Amersham Pharmacia Biotech), washed with 10 ml of loading buffer and eluted with 25 mM triethanolamine pH 7.5, 250 mM NaCl, 10 glycerol, 4 mM MgCl2, 0.5 mM EDTA, 0.5 mM EGTA. The enzyme obtained at this stage (95% or greater purity) was used for experiments.
(§2) Assay of sGC Activity. Enzyme activity was assayed by formation of [^32P] cGMP from α[^32P]GTP at 37° C. in a final volume of 100 μl. Incubation medium contained 50 mM triethanolamine-HCl buffer (pH 7.4), 1 mM 3-isobutyl-1-methylxanthine (IBMX), 1 mg/ml BSA. 1 mM cGMP, 3 mM MgCl2, 0.05 mg/ml creatine phosphokinase, 5 mM creatine phosphate, 0.1 mM EGTA. 200 μM GTP (about 10.000 cpm/pmol). The reaction was started by addition of the substrate (GTP) with or without activators. 1 mM DTT, GSH or cysteine were added to the incubation medium before the addition of GTP. Thiol concentration varied in some experiments as indicated. Samples containing 0.2 μg sGC were incubated for 10 or 15 min and the reaction was stopped by addition of 500 μl 150 mM zinc acetate and 500 μl 180 mM sodium carbonate. The pellet of zinc carbonate containing most of the unreacted GTP was removed by centrifugation and the supernatant fractions were loaded onto columns filled with 1 g of neutral alumina. Columns were then eluted with 10 ml 0.1 M Tris-HCl buffer (pH 7.5) and Cherenkov radiation in flow through plus eluate was counted in a LKB liquid scintillation spectrometer. Samples incubated in the absence of sGC were used as a negative control. The concentration of dimethylsulfoxide (DMSO) used as a vehicle for YC-1 was not higher than 0.1 and had no effect on sGC activity as determined previously.

αβ^Cys105 mutant sGC = target: T2, αβ^Cys105 mutant sGC (Homo sapiens, UniProt Q02108+Q02153, H105C); experiment: Assay of sGC activity ([32P]cGMP formation from GTP), purified αβ^Cys105 mutant enzyme; format: biochemical
T2 construct: made in house; host or cells: Sf9 cells (baculovirus)
T2 sequence (Q02153 1-619 H105C): T1 sequence (Q02153 1-619) with H105C
T2 sequence (Q02108 1-690): T1 sequence (Q02108 1-690)
Experimental: as §1, §2

[1] = 2 μM BAY-41-2272, data not shown

SMILES: Nc1nc(-c2nn(Cc3ccccc3F)c3ncccc23)ncc1C1CC1 [BAY-41-2272, 5-cyclopropyl-2-[1-(2-fluoro-benzyl)-1H-pyrazolo[3,4-b]pyridin-3-yl]-pyrimidin-4-ylamine, reference compound]
effect compared with 100 μM YC-1 (wild type sGC; [1]): Identical effects
effect compared with 100 μM YC-1 (αβ^Cys105 mutant sGC; [1]): Identical effects

SMILES: O[C@@H](CS)[C@@H](O)CS [DTT, reference compound]
change of activity without DTT (wild type sGC; 1 mM DTT vs no thiols): did not change significantly
concentration at which inhibitory effect is prominent (αβ^Cys105 mutant sGC; concentration-response, FIG. 1B): higher than 1 mM
fold decrease in enzymatic activity (αβ^Cys105 mutant sGC; millimolar concentrations of DTT): 5–7 fold

SMILES: C=CC1=C(C)c2cc3[nH]c(cc4nc(cc5[nH]c(cc1n2)c(C)c5CCC(=O)O)C(CCC(=O)O)=C4C)c(C)c3C=C [PPIX, protoporphyrin IX, reference compound]
stimulation of basal activity by PPIX (αβ^Cys105 mutant sGC; 1 μM PPIX, absence of DTT): 80

SMILES: OCc1ccc(-c2nn(Cc3ccccc3)c3ccccc23)o1 [YC-1, 3-(5′-Hydroxymethyl-2′furyl)-1-benzyl-indazole, reference compound]
fold stimulation by YC-1 (wild type sGC; 100 μM YC-1): 11 fold
specific activity with YC-1 (wild type sGC; 100 μM YC-1): 0.15 µmol/min/mg
increase of activity with YC-1 activation (αβ^Cys105 mutant sGC; 100 μM YC-1, DTT-free conditions): 30
extent of activation by YC-1 after heme reconstitution (αβ^Cys105 mutant sGC; 100 μM YC-1, DTT-treated heme-reconstituted enzyme): did not change the extent of activation
fold activation by YC-1 (αβ^Cys105 mutant sGC; 100 μM YC-1, in the presence of DTT): up to 3 fold

Second part, the compound after the results:

specific activity in the presence of GSH (αβ^Cys105 mutant sGC; GSH as reducing agent, no DTT): up to 2 μmol/min/mg
effect of GSH on activity (αβ^Cys105 mutant sGC; GSH concentration above 1 mM): slight stimulatory effect
SMILES: N[C@@H](CCC(=O)N[C@@H](CS)C(=O)NCC(=O)O)C(=O)O [GSH, glutathione, reference compound]

maximum fold activation by arachidonic acid (wild type sGC; not affected by DTT, data not shown): 3 fold
activity with arachidonic acid (αβ^Cys105 mutant sGC; 1 mM arachidonic acid, in the presence of DTT): 0.5 µmol/min/mg
fold stimulation by arachidonic acid (αβ^Cys105 mutant sGC; 1 mM, in the presence of DTT): 3.5 fold
stimulation by arachidonic acid (αβ^Cys105 mutant sGC; absence of DTT): only modestly stimulated
SMILES: CCCCC/C=C\C/C=C\C/C=C\C/C=C\CCCC(=O)O [arachidonic acid, reference compound]

effect of cystamine on activity in the presence of DTT (wild type sGC; 1 mM cystamine, 1 mM DTT): reversed
effect of cystamine on activity (wild type sGC; 1 mM cystamine, no DTT): inhibited
sensitivity to cystamine in the presence of DTT (αβ^Cys105 mutant sGC; 1 mM cystamine, 1 mM DTT): less sensitive
SMILES: NCCSSCCN [cystamine, reference compound]
